Assay results reported in patent US5212165A, “Method for rehabilitating the vasorelaxant action of the coronary arteries impaired through atherosclerosis or hypercholesterolemia employing an ACE inhibitor” (E. R. Squibb & Sons, Inc., priority 1989, dated 1993).
Read-outs that look alike come from different tables or passages of the source. One block for each compound: values may come before it. No end group written: not given here.

How the values were obtained:
[1] = system: K^+ depolarized arteries (iliac rings); test: Contractile responses to CaCl2 in K^+ depolarized iliac rings from cynomolgus monkeys; design: species or system cynomolgus (Macaca fascicularis) monkeys; details: Mean ± SEM
Description: (§1) Twenty-four male cynomolgus (Macaca fascicularis) monkeys were divided into four groups of six animals each. During the course of the study, one of the control monkeys was sacrificed due to ill health unrelated to the study. Each group was fed a different diet for six months. The control group ate a normal diet of monkey biscuit. The cholesterol group ate a specially formulated monkey diet containing cholesterol. The cholesterol +low captopril group ate the cholesterol diet supplemented with captopril (50 mg/kg divided into two daily doses). The cholesterol+high captopril group ate the cholesterol diet and a higher total dose of captopril (100 mg/kg divided into two daily doses).
(§2) The monkeys were sedated with an intramuscular injection of ketamine (10 mg/kg), then anesthetized with pentobarbital (25 mg/kg). The iliac arteries were carefully dissected, cleaned of surrounding connective tissue, and refrigerated overnight for use the following day.
(§3) On the day of the experiment, three iliac rings (3 mm wide) from each animal were cut and mounted for isometric force recording. Each ring was attached to a micrometer for the control of muscle length and to a Grass FT.03 force transducer and Grass 7D recorder. The rings were placed in warm (37° C.), oxygenated, physiological salt solution (PSS) of the following composition (in mM): 140.0 NaCl, 4.7 KCl, 1.2 MgSO4, 1.6 CaCl2, 1.2 NaH2 PO4, 5.6 D-glucose, 2.0 2-(N-morpholino)propanesulfonic acid (MOPS, pH 7.4 at 37° C.), and 0.02 Na2 -ethylenediaminetetraacetic acid (EDTA). The rings were stretched to a preload of 5 g during a 2 hour equilibration period, then stimulated with 1 μM phenylephrine to test for viability and relaxed with 100 nM acetylcholine to test for endothelial function. Stock solutions of phenylphrine, acetylcholine, propranolol, and sodium nitroprusside were prepared daily in water; nifedipine stock solutions were prepared daily in ethanol.
(§4) The voltage-dependent calcium channels were studied in one ring from each monkey. The protocol consisted of depleting the cells of calcium by exposing the rings to a Ca-free, EGTA (ethylene glycol-bis(β-aminoethyl ether)N,N,N',N'-tetraacetic acid) PSS (omission of CaCl2 and addition of 0.1 mM EGTA) for 30 minutes. The EGTA was subsequently removed from the tissues with three washes of Ca-free PSS (simple omission of CaCl2). Following that, the rings were bathed in Ca-free, K^+ PSS (omission of CaCl2 and isoosmotic substitution of KCl for NaCl such that the KCl concentration was 110 mM) for 30 minutes. A CaCl2 concentration-response curve was obtained by replacing the bath solution with K^+ PSS containing incremental increases in CaCl2 concentration (0.1, 0.3, 0.5, 1.0, 1.25, 1.6, and 2.5 mM). The maximal contractions, in response to 2.5 mM CaCl2, were then relaxed incrementally with nifedipine. Another iliac ring (fade control) from each monkey was subjected to the same protocol with the exception that the strips were allowed to remain contracted and the nifedipine concentration-response curve was not obtained. Some fade of the CaCl2 -induced force was observed over the time period required for the nifedipine concentration-response curve. This fade was accounted for by decreasing the amount of relaxation observed upon addition of nifedipine by the amount of fade observed in the time control from the same monkey.
(§5) Data are presented as mean±SEM. The IC50 and EC50 values were estimated by linearly interpolating from the concentration-response curves. The EC50 values for each ring were used to determine the means for each treatment group.
Concentration-response curves to CaCl2 in K^+ depolarized rings were obtained following depletion of tissue calcium by repeated washing in Ca-free PSS first with, then without, EGTA. There were no differences in the responses to CaCl2 among any of the treatment groups (Table 1).

[2] = system: vascular relaxation in response to EN-D (ACh) and EN-I (Na nitroprusside) agonists; details: rats, cited from earlier work; for vascular relaxations in response to EN-D (ACh) and EN-I (Na nitroprusside) agonists: oral
[3] = system: isolated aorta from hypertensive rats; details: cited from earlier work
[4] = system: delayed cerebral arteriospasm; details: cited from earlier work
[5] = system: phenylephrine-contracted isolated iliac arteries; test: Acetylcholine-induced relaxation of phenylephrine-contracted isolated iliac arteries from cynomolgus monkeys; design: species or system cynomolgus (Macaca fascicularis) monkeys; details: for EC50: Macaca fascicularis, non-responder excluded, Mean ± SEM; for maximum force generated in response to phenylephrine (before acetylcholine): non-responders excluded, mean±SEM
Description: as §1, §2, §3
(§6) Alpha-adrenoceptor and endothelial cell function were examined in the third ring from each monkey. In the presence of 0.1 μM propranolol, a cumulative concentration-response curve to phenylephrine was obtained, then the phenylephrine was washed out of the baths and the rings were allowed to relax completely. The rings were subsequently contracted with an EC50 concentration of phenylephrine (1 μM) and, following stabilization of the contraction, the rings were treated with increasing concentrations of acetylcholine, followed by 100 nM sodium nitroprusside.
as §5
For each monkey, the EC50 for acetylcholine relaxation was calculated by linearly interpolating from the concentration-response curves. When 50% relaxation was not achieved, the value of the EC50 was set to 30 μM a value larger than any of the experimental concentrations of acetylcholine).
Linear contrast of mean ranks in the groups were constructed with a variance estimate for the contrast based on the Kruskal-Wallis statistic (Dunn 1964).
In the analyses, the following coefficients were employed: i) for an overall test, the coefficients were 3 for the cholesterol group, 1 for the control group, -1 for the cholesterol+low captopril group, and -3 for the cholesterol+high captopril group, based on prior expectations of likely results; ii) for a test of the cholesterol effect, the coefficients were 1 for the cholesterol group, -1 for the control group, 0 for the cholestrol+low captopril group, and 0 for the cholesterol+high captopril group; iii) for a test of the captopril effect, the coefficients were 0 for the cholesterol group, 1 for the […], 0 for the cholesterol+low captopril group, and -1 for the cholesterol+high captopril group.
All statistical results reported are based on one-sided tests. […]

angina patients = details: 12 angina patients; Thuermann et al; cited from earlier work
[6] = system: voltage-dependent calcium channels (iliac rings); test: Relaxation responses to nifedipine of CaCl2-contracted iliac rings from cynomolgus monkeys; design: species or system cynomolgus (Macaca fascicularis) monkeys; details: Macaca fascicularis, contracted with 2.5 mM CaCl2 in K^+ PSS, mean±SEM
Description: as §1, §2, §3, §4
Data are presented as mean±SEM. The IC50 and EC50 values were estimated by linearly interpolating from the concentration-response curves. […]

[7] = system: alpha-adrenoceptor (isolated iliac arteries); test: Contractile responses to phenylephrine of isolated iliac arteries from cynomolgus monkeys; design: species or system cynomolgus (Macaca fascicularis) monkeys; details: Mean ± SEM; for EC50: Macaca fascicularis, read-out: EC50 (phenylephrine-induced contraction)
Description: as §1, §2, §3, §6, §5
Phenylephrine concentration-response curves were obtained in iliac rings from all groups of monkeys.

isolated rat hearts = details: interaction with ARG-I, ARG-II and BK; Schoelkens et al; cited from earlier work
[8] = system: delayed cerebral vasospasm of the basilar artery and its branches; details: by injection; Gavras et al; cited from earlier work
[9] = system: acute cerebral arteriospasm; details: after subarachnoid hemorrhage, dog, angiographic; cited from earlier work
[10] = system: rabbit or human platelets; details: in vitro; cited from earlier work
rabbit veins = details: in vitro; cited from earlier work
guinea pig or rat lungs = details: infusion through guinea pig or rat lungs; cited from earlier work
rat stomach = details: in vitro; cited from earlier work
rat mesenteric veins = details: cited from earlier work

Compound: [Ca+2].[Cl-].[Cl-] [CaCl2]
EC50 ([1]; Cholesterol group): 200000 ± 30000 nM
Max Force (CaCl2) ([1]; Cholesterol group): 18.2 ± 1.6 g
EC50 ([1]; Control group): 140000 ± 10000 nM
Max Force (CaCl2) ([1]; Control group): 18.5 ± 1.1 g

Compound: COc1ccc2c(c1)c(CC(=O)O)c(C)n2C(=O)c1ccc(Cl)cc1 [Indomethacin]
effect on ACh-induced relaxation [2]: did not prevent the effect of ACh
effect on relaxation responses ([3]; isolated aorta, hypertensive and normotensive rats): unaffected

Compound: C[C@H](N[C@@H](CCc1ccccc1)C(=O)O)C(=O)N1CCC[C@H]1C(=O)O [MK-422]
restoring arterial width in delayed cerebral arteriospasm ([4]; four dogs, injectable form, unpublished data, preliminary): at least as effective as teprotide

Compound: CC(=O)OCC[N+](C)(C)C [acetylcholine]
EC50 ([5]; Cholesterol group, N 5, EC50 set at 30 μM if <50% relaxation): 16200 ± 7200 nM
EC50 ([5]; Control group, N 4): 300 ± 100 nM

Compound: CCOC(=O)C(CCc1ccccc1)N[C@@H](C)C(=O)N1CCC[C@H]1C(=O)O (stereo partly drawn) [enalapril, N-(1-ethoxycarbonyl-3-phenylpropyl)-L-alanyl-L-proline]
vascular relaxations in response to EN-D (ACh) and EN-I (Na nitroprusside) agonists [2]: differentially affected vascular relaxations
normalization of relaxation responses and prevention of hypertension ([3]; P.o., salt-induced hypertension, rat): ineffective
anti-ischemic effect (angina patients): shown to have an anti-ischemic effect

Compound: NNc1nncc2ccccc12 [hydralazine]
vascular relaxations in response to EN-D (ACh) and EN-I (Na nitroprusside) agonists [2]: differentially affected vascular relaxations

IC50 ([6]; cholesterol group): 22.8 ± 5.6 nM
IC50 ([6]; cholesterol+high captopril group): 11.5 ± 1.8 nM
IC50 ([6]; cholesterol+low captopril group): 18.8 ± 6.6 nM
IC50 ([6]; control group): 11.4 ± 2.3 nM
Compound: COC(=O)C1=C(C)NC(C)=C(C(=O)OC)C1c1ccccc1[N+](=O)[O-] [nifedipine]

EC50 ([7]; Cholesterol group): 1200 ± 300 nM
EC50 ([7]; Control group): 800 ± 100 nM
Compound: CNC[C@H](O)c1cccc(O)c1 [phenylephrine]
maximum force generated in response to phenylephrine (before acetylcholine) ([5]; cholesterol group): 11.0 ± 2.6 g
maximum force generated in response to phenylephrine (before acetylcholine) ([5]; control group): 14.3 ± 1.4 g
Max Force (phenylephrine-induced contraction) ([7]; Cholesterol group): 17.3 ± 3.3 g
Max Force (phenylephrine-induced contraction) ([7]; Control group): 22.5 ± 1.6 g

Compound: Oc1cccc(O)c1O [pyrogallol]
effect on ACh-induced relaxation [2]: did inhibit ACh-induced relaxations

Compound: CCOC(=O)[C@H](CCc1ccccc1)N[C@@H](C)C(=O)N1[C@H](C(=O)O)C[C@@H]2CCC[C@@H]21 [ramipril]
local cardioprotective actions (isolated rat hearts): BK is involved in the local cardioprotective actions of RP

Compound: CC[C@H](C)[C@H](NC(=O)[C@H](CCC(N)=O)NC(=O)[C@@H]1CCCN1C(=O)[C@H](CCCNC(=N)N)NC(=O)[C@@H]1CCCN1C(=O)[C@H](Cc1c[nH]c2ccccc12)NC(=O)[C@@H]1CCC(=O)N1)C(=O)N1CCC[C@H]1C(=O)N1CCC[C@H]1C(=O)O [teprotide]
release of delayed cerebral vasospasm [8]: partial or total release
effect on acute cerebral arteriospasm [9]: effective
effect on delayed established cerebral arteriospasm ([4]; dog, in vivo): could reverse that spasm as well

Compound: endothelin: endothelin (EL) (CSCSSLMDKECVYFCHLDIIW; ends and bridges not checked; cysteine pairing not given here; UniProt P05305 53-73, looked up)
platelet aggregation [10]: did not aggregate rabbit or human platelets or prevent their aggregation
contraction of rabbit veins (rabbit veins): contracted rabbit veins
release of PG12 and TXA2 (guinea pig or rat lungs): release PG12 and TXA2
contraction of rat stomach (rat stomach): contracted rabbit veins and rat stomach
vasoconstriction (rat mesenteric veins; at higher doses): vasoconstriction
dilatation of rat mesenteric veins (rat mesenteric veins; via EDRF release): dilated rat mesenteric veins
